# According to article PMC6737615, “Complete oxidation of hydroxymethylfurfural to furandicarboxylic acid by aryl-alcohol oxidase” (Biotechnology for Biofuels, 2019):
# Assays:
# [1] = target: T1, aryl-alcohol oxidase (AAO) (Pleurotus eryngii, UniProt O94219); assay: biochemical
# T1 sequence (O94219 28-593): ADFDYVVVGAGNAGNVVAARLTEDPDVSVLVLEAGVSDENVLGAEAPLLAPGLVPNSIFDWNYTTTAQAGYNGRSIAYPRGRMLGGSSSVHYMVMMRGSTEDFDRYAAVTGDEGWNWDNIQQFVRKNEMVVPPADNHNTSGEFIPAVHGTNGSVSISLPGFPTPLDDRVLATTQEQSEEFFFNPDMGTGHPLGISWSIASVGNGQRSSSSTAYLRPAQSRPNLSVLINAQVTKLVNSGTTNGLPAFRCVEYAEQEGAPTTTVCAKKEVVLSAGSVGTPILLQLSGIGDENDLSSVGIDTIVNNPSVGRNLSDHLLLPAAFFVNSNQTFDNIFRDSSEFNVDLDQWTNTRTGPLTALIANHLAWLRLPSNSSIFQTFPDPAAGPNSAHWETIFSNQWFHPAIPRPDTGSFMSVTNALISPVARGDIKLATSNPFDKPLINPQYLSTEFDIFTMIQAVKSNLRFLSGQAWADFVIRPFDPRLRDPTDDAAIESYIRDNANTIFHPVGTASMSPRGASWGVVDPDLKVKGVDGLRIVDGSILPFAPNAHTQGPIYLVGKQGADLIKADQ
# [2] = target: T1, aryl-alcohol oxidase (AAO); assay: turnover at saturating aldehyde, spectrophotometric acid formation; type: biochemical; parameters: mature AAO cDNA (GenBank AF064069) expressed in E. coli
# Experimental: turnover at saturating aldehyde, spectrophotometric acid formation on aryl-alcohol oxidase (AAO) | Turnovers for aldehyde oxidation were calculated at saturating concentration of p-anisaldehyde
# [3] = target: T1, aryl-alcohol oxidase (AAO); assay: HPLC and 1H-NMR of oxidation by purified AAO; type: biochemical; parameters: mature AAO cDNA (GenBank AF064069) expressed in E. coli
# [4] = target: aryl-alcohol oxidase (AAO) (Pleurotus eryngii, UniProt O94219, F424Y); assay: conversion to FDCA by purified variant with catalase, HPLC; type: biochemical
# Text: (§1) conversion to FDCA by purified variant with catalase, HPLC on aryl-alcohol oxidase (AAO) | production of FDCA from HMF by native AAO, and its F501H, F397Y, and I500M/F501 W variants
# [5] = target: aryl-alcohol oxidase (AAO) (Pleurotus eryngii, UniProt O94219, F528H); assay: as above; type: biochemical
# Text: as §1
# [6] = target: aryl-alcohol oxidase (AAO) (Pleurotus eryngii, UniProt O94219, I527M/F528W); assay: as above; type: biochemical
# Text: as §1
structure (smiles),measurement,setting,value
OO [H2O2],IC50,[1],~158 µM
COc1ccc(C=O)cc1 [p-anisaldehyde],p-Anisaldehyde / kcat,[2],0.122 s⁻¹
O=Cc1ccc(CO)o1 [HMF],HPLC and 1H-NMR of oxidation by purified AAO,[3],2.54 h⁻¹
same,% conversion,[4],75.7 % conversion
same,% conversion,[5],97.9 % conversion
same,% conversion,[6],52.8 % conversion
